In the experiment the target is T1, HCV NS3 helicase (Hepatitis C virus genotype 1b, UniProt P26663).
T1 construct: full-length NS3 (1-631), purified at Array BioPharma
Kind of experiment: HCV Helicase Prompt FRET Assay (Example A). The experiment is classed as biochemical. The conditions noted are these: for IC50: read-out: IC50 Activity. The method, then: Test compounds were diluted to 2.5 mM by adding 6 uL of a 10 mM solution of the compound to 18 uL of DMSO in a 384-well Costar polypropylene plate. Serial dilutions (2.5×) were performed in the plate using DMSO as the diluent. 1 ul of solution was transferred from each well to a new 384-well Costar polypropylene plate.
A 2× mixture was prepared containing 100 nM helicase substrate, 500 nM helicase capture strand (CS), and 600 μM ATP by diluting stock solutions with assay buffer consisting of 25 mM MOPS, pH 7.0, and 1.5 mM MgCl2, 0.005% (v/v) Triton X-100. Stock helicase substrate was prepared by annealing a FAM-labeled oligonucleotide to a BHQ-1 labeled oligonucleotide, which were both custom synthesized and HPLC-purified at Biosearch Technologies. The FAM-labeled and BHQ-labeled oligonucleotide had the following sequences:
The helicase capture strand was custom synthesized and purified at Integrated DNA Technologies. The helicase capture strand had the following sequence:
The ATP solution was prepared in MilliQ water, pH adjusted to approximately 7 with NaOH. ATP powder was obtained from Sigma (A-7699). The concentration was determined via A260 (ext. coeff=15,400 M^−1cm^−1).
11.5 μL of assay buffer was added to all wells of the plate containing luL of test compound. 5 μL of the Compound/assay buffer mixture was added to a black polystyrene 384-well Proxiplate. A 4× Enzyme solution was prepared by diluting enzyme stock containing full-length NS3 (1-631), purified at Array BioPharma, with assay buffer. 5 μL of the 4× Enzyme solution was added to the Proxiplate and incubated for 5 minutes (for control wells lacking enzyme, assay buffer was used instead). 10 μL of 2× substrate/CS/ATP mixture was then added to all wells of Proxiplate. The final assay conditions included 50 nM Substrate, 250 nM Capture Strand, 300 μM ATP, 5 or 6 nM Enzyme, and 2% (v/v) DMSO. The reaction proceeded for 70 cycles (˜30 min.) on an Envision at room temperature. The plate was read using the Envision (top mirror=FITC; Excitation filter=FITC 485; Emission filter=FITC 535). The fluorescence intensity was recorded for a total of 30 minutes. The initial rates of the reactions was calculated and used to calculate IC50 values. The IC50 curve fitting was performed using either a 4-parameter or 5-parameter logistic equation.

The mark [1] stands for this setting: Table 21, compounds made using Scheme 28.
Where [2] appears, read: HCV NS3 helicase, tables do not say whether Example A or Example B assay.
The mark [3] stands for this setting: Table 31, compounds made using Schemes 38-45.
Setting [4] is: Table 34, compounds made using Schemes 51-52.

Each structure is given as a SMILES string. Read-outs that look alike come from different tables or passages of the source.

As a reminder, the IC50 is the midpoint of a concentration-inhibition curve.

T1 sequence (P26663 1027-1657): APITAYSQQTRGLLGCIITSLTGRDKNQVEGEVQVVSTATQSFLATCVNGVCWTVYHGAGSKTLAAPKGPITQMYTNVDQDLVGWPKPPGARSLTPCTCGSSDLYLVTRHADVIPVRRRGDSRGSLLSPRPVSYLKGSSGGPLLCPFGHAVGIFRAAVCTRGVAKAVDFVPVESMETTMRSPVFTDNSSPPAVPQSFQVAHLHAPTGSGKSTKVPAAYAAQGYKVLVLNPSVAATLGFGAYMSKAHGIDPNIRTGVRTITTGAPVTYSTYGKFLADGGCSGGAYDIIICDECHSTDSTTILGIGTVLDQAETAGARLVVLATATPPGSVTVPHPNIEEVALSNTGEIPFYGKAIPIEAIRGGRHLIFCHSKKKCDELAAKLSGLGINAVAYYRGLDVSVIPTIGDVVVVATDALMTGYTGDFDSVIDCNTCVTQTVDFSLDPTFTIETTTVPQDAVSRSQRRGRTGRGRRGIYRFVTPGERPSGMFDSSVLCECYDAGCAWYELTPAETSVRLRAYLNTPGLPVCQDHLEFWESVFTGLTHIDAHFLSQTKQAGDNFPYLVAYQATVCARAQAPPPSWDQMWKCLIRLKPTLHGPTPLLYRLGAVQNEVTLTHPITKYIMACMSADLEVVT

Regarding `CN(c1ccc(Cn2cc(CC(=O)O)c3ccccc32)cc1)c1c(Cl)cccc1Cl` [Example 576], the IC50 under setting [1] was < 10 µM.

Take `O=C(O)Cc1c(C(=O)c2cccc(-c3ccc(Cl)cc3Cl)c2)oc2ccccc12` [Example 242]: the IC50 under setting [2] was < 10 µM.

Turning to `O=C(O)Cc1cn(Cc2csc3ccc(Cl)cc23)c2cc(-c3cccc(O)c3)ccc12` [Example 625], under setting [3], the IC50 is < 10 µM.

As for `O=C(O)Cc1cn(Cc2csc3ccc(Cl)cc23)c2cc(Br)ccc12` [Example 359], the IC50 under setting [2] is 10 to 50 µM.

Turning to `O=C(O)Cc1cn(Cc2cccc(Oc3ccc(C(F)(F)F)cc3)c2)c2ccccc12` [Example 483], the IC50 under setting [2] was < 10 µM.

On to `O=C(O)Cc1c[nH]c2ncccc12` [Example 318], for which, under setting [2], the concentration for half-maximal inhibition (IC50) is > 50 µM.

As for `CC(C)CNC(=O)Cc1cn(Cc2cccc(OCc3ccccc3)c2)c2ccc(OCc3ccccc3)cc12` [Example 187], the IC50 under setting [2] was 10 to 50 µM.

Consider `CC(C)c1cccc(-c2cccc(Cc3[nH]c4ccccc4c3CC(=O)O)c2)c1` [Example 302], for which, under setting [2], the half-maximal inhibitory concentration (IC50) is < 10 µM.

Consider `O=C(O)c1cccc2c1c1ccccc1n2Cc1ccccc1` [Example 465], for which, under setting [2], the IC50 is > 50 µM.

As to `Cc1ccc2c(c1)c(CC(=O)O)cn2-c1ccc([N+](=O)[O-])cc1C` [Example 380], under setting [2], the IC50 is > 50 µM.

Consider `O=C(O)Cc1c[nH]c2c(Oc3ccc([N+](=O)[O-])cc3)cccc12` [Example 355], for which the half-inhibitory concentration (IC50) under setting [2] was > 50 µM.

With `O=C(O)Cc1c(C(=O)c2ccc(-c3ccccc3)cc2)n(Cc2csc3ccc(Cl)cc23)c2ccccc12` [Example 220], under setting [2], the half-maximal inhibitory concentration (IC50) is < 10 µM.

Take `OCCc1cn(Cc2csc3ccc(Cl)cc23)c2cc(Br)ccc12` [Example 694]: the IC50 under setting [4] is > 50 µM.

As for `Nn1cc(-c2ccc3c(CC(=O)O)cn(Cc4csc5ccc(Cl)cc45)c3c2)c(=O)n(N)c1=O` [Example 651], under setting [3], the concentration for half-maximal inhibition (IC50) was > 50 µM.

With `CCOC(=O)Cc1cn(Cc2c(C)sc3ccc(Cl)cc23)c2cc(-c3cc(N)cc(N)c3)ccc12` [Compound 617], where the note is “Table 27, compounds made using Scheme 34”, the “IC50 Activity” value is “B or C”.

As for `CC(C)Oc1ccc2scc(Cn3cc(CC(=O)O)c4cc(Br)ccc43)c2c1` [Example 140], the half-inhibitory concentration (IC50) under setting [2] was < 10 µM.

`CC(C)c1ccc(Cn2cc(C(NC(=O)c3c[nH]cn3)C(=O)O)c3ccccc32)cc1` (stereo not drawn) [Example 422]: under setting [2], the IC50 is 10 to 50 µM.

`O=C(O)Cc1c(C(=O)c2cccc(-c3ccc(CO)cc3)c2)[nH]c2ccccc12` [Example 235]: under setting [2], the IC50 was in the range of 10 to 50 µM.

Consider `O=C(O)Cc1c(Cc2ccc(-c3ccccc3)cc2)n(Cc2ccccc2)c2ccccc12` [Example 277], for which the IC50 under setting [2] was 10 to 50 µM.

Take `O=C(O)Cc1cn(Cc2cccc(Oc3ccc(Cl)cc3)c2)c2ccccc12` [Example 477]: the concentration for half-maximal inhibition (IC50) under setting [2] is < 10 µM.

With `O=C(O)Cc1cn(Cc2cc(F)cc(C(F)(F)F)c2)c2ccc(Br)cc12` [Example 134], the IC50 under setting [2] lay in the range of 10 to 50 µM.

As for `CC(=O)Nc1cccc(-c2ccc3c(CC(=O)O)cn(Cc4csc5ccc(Cl)cc45)c3c2)c1` [Example 766], under “Table 37, compounds made using Scheme 55”, the 50% inhibitory concentration (IC50) is 10 to 50 µM.

Consider `O=C(O)C(=O)c1cn(Cc2csc3ccc(Cl)cc23)c2cc(N3CCCC(O)C3)ccc12` (stereo not drawn) [Example 744], for which the IC50 under setting [2] was < 10 µM.

For the molecule `O=C(O)Cc1c(C(=O)c2cccc(-c3cccc(Cl)c3)c2)[nH]c2ccccc12` [Example 232], the IC50 under setting [2] lay in the range of 10 to 50 µM.

As to `CCN(Cc1ccccc1)c1ccc(-n2nc(CC(=O)O)c3ccccc32)c(C)c1` [Example 175], the IC50 under setting [2] lay in the range of 10 to 50 µM.

With `CSc1cccc(-c2ccc(-n3cc(CC(=O)O)c4ccccc43)cc2)c1` [Example 155], under setting [2], the 50% inhibitory concentration (IC50) is < 10 µM.

With `CN(c1ccc(F)cc1)c1ccc(Cn2cc(CC(=O)O)c3ccccc32)cc1` [Example 558], the IC50 under setting [1] lay within 10 to 50 µM.

For `O=C(O)C(Cc1ccccc1)c1cn(Cc2csc3ccc(Cl)cc23)c2cc(OCc3ccccc3)ccc12` (stereo not drawn) [Example 351], the half-maximal inhibitory concentration (IC50) under setting [2] was < 10 µM.

As to `O=C(O)Cc1cn(Cc2ccc(Oc3cccc(Cl)c3)cc2)c2ccccc12` [Example 497], under setting [2], the IC50 was < 10 µM.

For `O=C(O)Cc1cn(-c2ccc(NC(=O)Cc3ccsc3)cc2)c2ccccc12` [Example 164], the half-maximal inhibitory concentration (IC50) under setting [2] was 10 to 50 µM.

As for `Nc1cc(N)cc(-c2ccc3c(CC(=O)O)cn(Cc4csc5ccc(Cl)cc45)c3c2)c1` [Example 373], under setting [2], the IC50 was < 10 µM.

In the case of `Nc1nc(Cl)c(C=O)c(-c2ccc3c(CC(=O)O)cn(Cc4csc5ccc(Cl)cc45)c3c2)n1` [Example 637], the IC50 under setting [3] was < 10 µM.

`O=C(O)Cc1cn(Cc2cccc(Oc3c(Cl)cccc3Cl)c2)c2ccccc12` [Example 600]: the 50% inhibitory concentration (IC50) (Table 23, compounds made using Scheme 30) was 10 to 50 µM.

Take `CCOC(=O)Cc1cn(Cc2cccc(N(C)c3ccc(Cl)c(Cl)c3)c2)c2ccccc12` [Example 550]: the IC50 under setting [2] was > 50 µM.

With `CN(Cc1cccnc1)c1ccc(-n2cc(CC(=O)O)c3ccccc32)cc1` [Example 180], the 50% inhibitory concentration (IC50) under setting [2] was in the range of 10 to 50 µM.

Take `Nc1cc(-c2ccc3c(CC(=O)NOC4CCCCO4)cn(Cc4csc5ccc(Cl)cc45)c3c2)cc([N+](=O)[O-])c1` (stereo not drawn) [Example 690]: the half-inhibitory concentration (IC50) under setting [4] is > 50 µM.

`Nc1cc(N)cc(-c2ccc3c(CC(=O)O)cn(Cc4cc5cc(Cl)ccc5s4)c3c2)c1` [Example 710]: under “Table 35, compounds made using Scheme 53”, the half-maximal inhibitory concentration (IC50) is < 10 µM.

Turning to `CN(c1ccc(Cn2cc(CC(=O)O)c3ccccc32)cc1)c1ccc(F)cc1F` [Example 569], the IC50 under setting [1] is < 10 µM.

With `COc1ccc(Oc2cccc(Cn3cc(CC(=O)O)c4ccccc43)c2)cc1OC` [Example 491], under setting [2], the 50% inhibitory concentration (IC50) was 10 to 50 µM.

With `Cc1cc([N+](=O)[O-])ccc1-n1cc(C(NC(=O)C2CCCN2)C(=O)O)c2ccccc21` (stereo not drawn) [Example 672], under setting [4], the IC50 is > 50 µM.

For the molecule `COc1ccc2scc(Cn3cc(CC(=O)O)c4cc(Br)ccc43)c2c1` [Example 136], the IC50 under setting [2] is < 10 µM.

As for `COc1ccc(OC)c(Oc2cccc(Cn3cc(CC(=O)O)c4ccccc43)c2)c1` [Example 490], under setting [2], the IC50 is 10 to 50 µM.

For `O=C(O)Cc1c(C(=O)c2ccc(-c3c(Cl)cccc3Cl)cc2)[nH]c2ccccc12` [Example 273], under setting [2], the half-maximal inhibitory concentration (IC50) fell in the range of 10 to 50 µM.

As to `O=C(O)Cc1cn(Cc2cccc(Oc3ccccc3C(F)(F)F)c2)c2ccccc12` [Example 481], the IC50 under setting [2] is < 10 µM.

`O=C(O)Cc1c(Cc2cccc(-c3ccc(Cl)cc3Cl)c2)oc2ccccc12` [Example 308]: under setting [2], the half-inhibitory concentration (IC50) is < 10 µM.

`CN(c1ccc(Cn2cc(CC(=O)O)c3ccccc32)cc1)c1cccc(F)c1` [Example 557]: the IC50 under setting [1] was < 10 µM.

On to `CCCN(Cc1ccccc1)c1ccc(-n2cc(CC(=O)O)c3ccccc32)cc1` [Example 170], for which the IC50 under setting [2] lay within 10 to 50 µM.

Take `CC(C)c1ccc(Cn2cc(C(N)C(=O)O)c3ccccc32)cc1` (stereo not drawn) [Example 418]: under setting [2], the IC50 was > 50 µM.

As for `CC(=O)Nc1ccc(-c2ccc(Cc3[nH]c4ccccc4c3CC(=O)O)cc2)cc1` [Example 292], under setting [2], the IC50 was in the range of 10 to 50 µM.

Regarding `CSc1cccc(-c2cccc(C(=O)c3[nH]c4ccccc4c3CC(=O)O)c2)c1` [Example 228], the IC50 under setting [2] fell in the range of 10 to 50 µM.

As for `Nc1cc(N)cc(-c2ccc3c(CC(=O)O)cn(Cc4c(-c5ccccc5)sc5ccccc45)c3c2)c1` [Example 713], where the note is “Table 36, compounds made using Scheme 54”, the IC50 is < 10 µM.

Take `O=C(O)Cc1cn(Cc2cccc(OCc3ccccc3)c2)c2ccccc12` [Example 116]: the concentration for half-maximal inhibition (IC50) under setting [2] is 10 to 50 µM.

Regarding `O=C(O)Cc1cn(Cc2csc3ccc(Br)cc23)c2ccc(Br)cc12` [Example 135], under setting [2], the concentration for half-maximal inhibition (IC50) is < 10 µM.

Turning to `NC(=O)c1cccc(-c2cccc(Cc3[nH]c4ccccc4c3CC(=O)O)c2)c1` [Example 301], the IC50 under setting [2] lay in the range of 10 to 50 µM.

Source of the values: patent US20090047246A1, “NOVEL INHIBITORS OF HEPATITIS C VIRUS REPLICATION” (InterMune, Inc., priority 2007, published 2009).
